The source of these data is US6166067A, “Inhibitors of cholesterol-biosynthesis for reducing the cholesterol content of poultry eggs” (priority 1998, dated 2000).

One data set concerns cholesterol. Particulars: high doses; cited from earlier work.
The test system of data set [1] is triglycerides in the yolk. In words: Triglycerides in egg yolk, laying-hen feeding trial (Example 1). The data set is classed as in vivo, laying hens (Lohmann Selected Leghorn). As to conditions: 4 weeks. The protocol: (§1) At the start of the trial, the laying hens (Lohmann Selected Leghorn) had been laying for 28 weeks. One treatment group consisted of 10 hens. The birds were initially fed with the various active ingredients for 4 weeks. The eggs were then collected for the analyses. 3 independent yolk pools were formed from 6 eggs in each case and were deep-frozen until analyzed. Total cholesterol and triglycerides in the yolk were analyzed by enzymatic methods. The analyses were carried out as stated in the handbook "Veterinarmedizinische Laboruntersuchungen fur die Diagnose und Verlaufskontrolle" (1985), 3rd edition, published by Boehringer Mannheim GmbH, Mannheim.
(§2) The triglycerides are determined enzymatically via their glycerol content. The triglycerides are cleaved enzymatically by the enzymes lipase and esterase. The resulting glycerol is phosphorylated by ATP to glycerol 3-phosphate in the reaction catalyzed by glycerol kinase GK.
glycerol+ATP.revreaction.glycerol 3-phosphate+ADP
The resulting ADP is converted by pyruvate kinase (PK) with phosphoenolpyruvate (PEP) back into ATP, with formation of pyruvate. [drawing 6] Pyruvate is hydrogenated to lactate by lactate dehydrogenase (LDH) with NADH, the NADH being oxidized to NAD. [drawing 7]
The amount of NADH consumed during the reaction is equivalent to the amount of glycerol. NADH is the measured variable and can easily be determined from its absorption at Hg 366 nm, Hg 334 nm or 340 nm.
(§3) The data were subjected to analysis of variance, and differences between means were ranged by the Duncan test.

On the set-up of data set [2]: species or system laying hens. Particulars: in vivo. The procedure: (§4) Tocopherols and tocotrienols in the yolk pools were determined by HPLC. To do this, the sample is hydrolyzed in aqueous alcoholic medium and extracted several times with diethyl ether. Quantification takes place by comparison with external standards.
(§5) Another feeding experiment was carried out in analogy to Example 1. In this case the intention was to test not only α- and δ-tocotrienol but also a tocotrienol precursor (4-oxo-γ-tocotrienol) and other terpenoids such as farnesyl acetate, perillyl alcohol, linalool and β-ionone, in laying hens.
(§6) The trial protocol corresponds to that in Example 1 but with the following amendments:
(§7) The number of birds comprised 8 hens per treatment.
(§8) In addition, α-, δ- and 4-oxo-γ-tocotrienol in yolk and liver (treatments 1 to 7) were determined.

The subject of data set [3] is cholesterol content of poultry eggs. As to conditions: literature (Huggett et al.; Beyer and Jensen); cited from earlier work.
Another data set relates to plasma triglyceride. Nature of the data set: Triglycerides in plasma, laying-hen feeding trial (Example 2). Type of data set: in vivo, laying hens. Particulars: 500 mg/kg feed; control 2496. The protocol: as §2, §5, §6, §7
(§9) 4 birds in each case from the control and the high dosages were sacrificed at the end of the trial. After taking blood to obtain plasma, the birds were completely exsanguinated. The liver was then removed and deep frozen until analyzed.
(§10) Triglyceride and cholesterol were determined in 4 independent yolk pools(each from 6 eggs) and plasma.

On the set-up of data set [4]: species or system laying hens. Particulars: in vivo. The protocol:
as §4, §5, §6, §9, §8
This is another data set of the same source.

The next data set relates to triglycerides in yolk. In words: Triglycerides in egg yolk, laying-hen feeding trial (Example 2). Type of data set: in vivo, laying hens. Particulars: control 170.4. The procedure:
as §2, §5, §6, §7, §10

Data set [5] relates to plasma cholesterol. Nature of the data set: Cholesterol in plasma, laying-hen feeding trial (Example 2). Type of data set: in vivo, laying hens. Particulars: 500 mg/kg feed; control 125.3.
Description: (§11) For the cholesterol determination, the cholesterol esters were cleaved to cholesterol and fatty acid by the action of cholesterol esterase. Free cholesterol is converted by atmospheric oxygen with the involvement of cholesterol oxidase into Δ^4 -cholestenone and hydrogen peroxide. The resulting hydrogen peroxide forms with 4-aminophenazone and phenol through the catalytic action of peroxidase a red dye whose intensity of color is directly proportional to the cholesterol concentration and can be measured at 500 to 550 nm.
as §5, §6, §7, §9, §10

The test system of the next data set is cholesterol in yolk. In words: Cholesterol in egg yolk, laying-hen feeding trial (Example 2). The data set is classed as in vivo, laying hens. As to conditions: for Cholesterol, yolk: control 10.23.
Description: as §11, §5, §6, §7, §10

Data set [6] relates to plasma cholesterol. Particulars: broilers, when cholesterol was fed at the same time; cited from earlier work.
The nature of data set [7]: Tocopherol and tocotrienol contents in yolk by HPLC (Example 1). Type of data set: in vivo, laying hens (Lohmann Selected Leghorn). The protocol:
as §1, §4
Stationary phase: Spherisorb CN 5 μm, 250×4 mm
Mobile phase: n-Hexane with 0.25% i-propanol
Fluorescence detection: 292 nm (extinction) 326 nm (emission)

Data set [8] concerns total cholesterol in the yolk. In words: Total cholesterol in egg yolk, laying-hen feeding trial (Example 1). The data set is classed as in vivo, laying hens (Lohmann Selected Leghorn). Particulars: 1000 mg/kg feed; 4 weeks. The procedure: as §1, §11, §3
For a further data set, the system named is HMG-CoA reductase. Particulars: broilers, supplementation; cited from earlier work.
Where [9] appears, read: 1000 mg/kg feed, after hydrolysis.

With `O=C(O)c1cccnc1` [nicotinic acid, reference compound], the cholesterol-lowering effect entry with cholesterol is reported as “cholesterol-lowering effect”. The “triglyceride content in the yolk” value in data set [1] (both dosages (1500 and 15000 mg/kg feed)) is reported as “significantly increased”.

Take `CC(C)=CCC/C(C)=C/CC/C(C)=C/CC[C@]1(C)CCc2c(C)c(O)c(C)c(C)c2O1` [α-Tocotrienol, α-tocotrienol]: the “effect on β-tocopherol” value in data set [2] was “effect on β-tocopherol only by the α-tocotrienol treatments”. Further, the “increase for tocotrienols in yolk” value in [2] was “most pronounced increase”. Besides, the “effect on the cholesterol content in eggs” value in data set [3] is given as “no effect”. In addition, the “Triglycerides, plasma” value in the data set on plasma triglyceride worked out at 4195 mg/dL. Further, in data set [4], the “detectability in the birds' livers” value is on record as “detectable in the birds' livers”. Further, the “Triglycerides, yolk” value in the data set on triglycerides in yolk (50 mg/kg feed) stood at 189.9 mg/g; with triglycerides in yolk (500 mg/kg feed), 195.1 mg/g. In addition, in the data set with plasma cholesterol [5], the “Cholesterol, plasma” value turned out to be 130.3 mg/dL. Also, the “Cholesterol, yolk” value in the data set on cholesterol in yolk (50 mg/kg feed) amounted to 9.85 mg/g; with cholesterol in yolk (500 mg/kg feed) it was 9.45 mg/g. For the same compound, in the data set with cholesterol in yolk (Example 2), the “trend in yolk cholesterol content” value is “trend toward reduced cholesterol contents in yolk”.

For the compound `CC(=O)Oc1c(C)c(C)c2c(c1C)CCC(C)(CCCC(C)CCCC(C)CCCC(C)C)O2` (racemic) [vitamin E (all-rac-α-tocopheryl acetate), all-rac-α-tocopheryl acetate, reference compound], the “change in plasma cholesterol” value in the data set with plasma cholesterol [6] is “increase in plasma cholesterol”. Further, in data set [7] (setting [9]), the “α-Tocopherol content in yolk” value was determined as 23064 μg/yolk, the “α-Tocotrienol content in yolk” value amounted to 227 μg/yolk, the “γ-Tocopherol content in yolk” value worked out at 188 μg/yolk and the “δ-Tocopherol content in yolk” value is on record as 36 μg/yolk. For the same compound, the “δ-Tocotrienol content in yolk” value in data set [7] (setting [9]) was 0 μg/yolk. Also, in data set [7] (1000 mg/kg feed, control 0.48 mg), the “α-Tocopherol content in yolk” value is given as 23 mg. For the same compound, the “effect on γ-tocopherol in the yolk” value in data set [7] (high α-tocopherol dosage (1000 mg/kg feed)) is recorded as “reduction in γ-tocopherol in the yolk”. In addition, the “effect on cholesterol in the yolk” value in [8] is “no effect”. Besides, the “effect on HMG-CoA reductase” value in the data set with HMG-CoA reductase is recorded as “stimulation of HMG-CoA reductase”. For the same compound, in data set [1] (1000 mg/kg feed), the “effect on triglycerides in the yolk” value is “no effect”.
